The target in experiment [1] is proton pump (H+/K+-ATPase) (Sus scrofa (Pig), UniProt P19156). Briefly: Inhibitory activity on proton pump (H+/K+-ATPase) activity. It is filed as biochemical. The following applies: porcine gastric mucosal microsomes, 5 mM KCl, pH 6.4; for pIC50: read-out: Proton pump inhibitory activity (IC50); for IC50: read-out: Proton pump inhibitory activity (IC50, nM), class symbol. On the procedure:
The compounds indicated in the above examples were tested for their inhibitory activity on proton pump (H+/K+-ATPase) activity as follows by applying the method disclosed in the literature. According to the methods of Nobuyuki Takahashi and Yukinori Take [J Pharmacol Exp Ther. 2018 February; 364(2):275-286], the gastric mucosal microsome fraction was isolated from the porcine stomach. The stomach isolated from the pig was washed first with tap water, only the fundus was cut, and then washed (a second time) with cold PBS. The gastric mucosa was separated by scraping, homogenized with 250 mM sucrose solution, and centrifuged at 20,000 g at 4° C. for 30 minutes. Only the supernatant was centrifuged at 115,000 g at 4° C. for 30 minutes, and the precipitate was suspended in 250 mM sucrose solution, added to cover with 7% Ficoll solution, and centrifuged at 135,000 g at 4° C. for 60 minutes. The microsome fraction formed at the interface was recovered and suspended in 250 mM sucrose solution, and centrifuged at 135,000 g, 4° C. for 60 minutes, and the precipitate was dissolved in 0.9% NaCl. The isolated gastric mucosal microsome fraction was quantified by using the Bicinchoninic Acid (BCA) kit (Thermo).
60 μl of enzyme reaction solution (a test compound at a given concentration, […] of gastric mucosal microsomes, 3 mM of MgSO4, 5 mM of KCl, 40 mM of Tris-HCl pH 6.4, and 0.5 mM of adenosine triphosphate) was added to each well of a 96-well plate and reacted at 37° C. for 60 minutes, and 30 μl of 10% SIDS was added to stop the enzyme reaction. 200 μl of detection solution (in which 10% L-ascorbic acid with pH 5.0 was mixed with 35 mM of ammonium molybdate tetrahydrate/15 mM of zinc acetate with pH 5.0 at the ratio of 4:1) was added and reacted at 37° C. for 30 minutes, and the absorbance value was measured at 750 nm by using a microplate reader (MULTISKAN GO, Thermo). The inhibition rate of proton pump activity was expressed as I050, which is 50% inhibition of enzyme activity, by using GraphPad Prism 5. In Table 1 below, an I050 value of 100 nM or less is indicated by +++, an I050 value of 101 to 200 nM is indicated by ++, and an I050 value of above 200 nM is indicated by +.

Experiment [2] has as its system human gastric cancer cells (AGS Cells). The experiment can be described thus: MTS assay, inhibition of proliferation of human gastric cancer cells (AGS Cells). The class given is cell-based. The following applies: 48 hours; for pIC50: read-out: Proliferation inhibitory effect of gastric cancer cells (IC50); for IC50: read-out: Proliferation inhibitory effect of gastric cancer cells (IC50, μM), class symbol. The procedure: To examine the effect of inhibiting the proliferation of the compounds indicated in the examples of the present invention on human gastric cancer cells (AGS Cells), MTS Assay experiments were in vitro performed. AGS cells were cultured in a 5% CO2 incubator at 37° C. by using RPMI 1640 medium containing 1% penicillin-streptomycin and 10% fetal bovine serum. The cells in culture were separated with using 0.25% Trypsin-0.02% EDTA every 3 to 4 days and subcultured.
For the experiment, the cultured cells were treated with 0.25% Trypsin-0.02% EDTA solution, the suspended cells were centrifuged at 1,200 rpm for 5 minutes, the supernatant was discarded, a culture medium was added thereto, and a cell suspension was made with the culture medium. Using a hemocytometer, 10,000 cells per well were dispensed into 96-well plates and cultured. After 24 hours, when the cells attached to the plate, the culture medium was discarded, and the cells were treated with new culture media prepared by concentration (test concentrations: 500 μm, 250 μm, 125 μm, 63 μm, 31 μm, 16 μm, 8 μm, 4 μm, and 2 μm) and cultured in a CO2 incubator for 48 hours. After treating with an MTS solution, the cells were incubated in a CO2 incubator for 1 hour, and the absorbance was measured at 490 nm by using a microplate reader device. The cell proliferation inhibition rate was expressed as IC50, which is 50% inhibition of cell proliferation, using GraphPad Prism 5.
In Table 2 below, the IC50 value is indicated as “+++” for 0 to 50 μM, “++” for 51 to 100 μM, and “+” for 101 to 400 μM.
In general terms: Formazan colour is commonly taken as a measure of viable cells.

Molecules are shown by their SMILES. pIC50: −log10 of the molar value. Read-outs that look alike come from different tables or passages of the source.

IC50 data for 20 compounds are collected here from patent US20250051275A1, “PYRROLE DERIVATIVE OR PHARMACEUTICALLY OR SITOLOGICALLY ACCEPTABLE SALTS THEREOF, AND COMPOSITION FOR PREVENTION, AMELIORATION OR TREATMENT OF GASTROINTESTINAL DISORDERS COMPRISING SAME AS ACTIVE INGREDIENT” (HANA PHARM CO., LTD., priority 2021, published 2025).

Sequence of proton pump (H+/K+-ATPase) (P19156 2-1034): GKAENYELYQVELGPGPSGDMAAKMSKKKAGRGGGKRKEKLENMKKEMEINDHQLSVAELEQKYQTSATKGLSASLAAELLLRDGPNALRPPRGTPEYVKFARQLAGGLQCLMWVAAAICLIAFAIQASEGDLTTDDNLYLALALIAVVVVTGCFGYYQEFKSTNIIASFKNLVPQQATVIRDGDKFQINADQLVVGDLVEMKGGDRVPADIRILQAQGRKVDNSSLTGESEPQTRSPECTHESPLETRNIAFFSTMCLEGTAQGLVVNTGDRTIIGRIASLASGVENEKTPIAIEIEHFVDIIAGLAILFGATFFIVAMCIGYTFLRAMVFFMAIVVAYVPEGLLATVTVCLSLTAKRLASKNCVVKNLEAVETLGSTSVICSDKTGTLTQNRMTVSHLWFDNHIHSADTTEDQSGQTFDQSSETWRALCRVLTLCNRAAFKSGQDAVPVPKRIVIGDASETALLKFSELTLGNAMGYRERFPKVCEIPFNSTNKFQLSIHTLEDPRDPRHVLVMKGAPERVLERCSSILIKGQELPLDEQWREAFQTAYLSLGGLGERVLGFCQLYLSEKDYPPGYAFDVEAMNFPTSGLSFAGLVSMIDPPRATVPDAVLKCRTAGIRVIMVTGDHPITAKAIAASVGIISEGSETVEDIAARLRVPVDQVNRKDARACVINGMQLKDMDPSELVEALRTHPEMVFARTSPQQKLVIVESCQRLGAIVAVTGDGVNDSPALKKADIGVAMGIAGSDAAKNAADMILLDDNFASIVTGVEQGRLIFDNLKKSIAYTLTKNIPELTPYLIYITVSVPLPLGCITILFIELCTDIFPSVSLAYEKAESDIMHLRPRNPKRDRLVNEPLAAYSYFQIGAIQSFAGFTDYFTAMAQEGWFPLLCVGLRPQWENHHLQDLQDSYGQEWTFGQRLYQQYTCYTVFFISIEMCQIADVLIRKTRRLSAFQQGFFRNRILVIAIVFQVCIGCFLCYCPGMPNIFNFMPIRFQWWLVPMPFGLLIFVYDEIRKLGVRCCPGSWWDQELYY
Sequence of proton pump (H+/K+-ATPase) (P18434 whole entry partner): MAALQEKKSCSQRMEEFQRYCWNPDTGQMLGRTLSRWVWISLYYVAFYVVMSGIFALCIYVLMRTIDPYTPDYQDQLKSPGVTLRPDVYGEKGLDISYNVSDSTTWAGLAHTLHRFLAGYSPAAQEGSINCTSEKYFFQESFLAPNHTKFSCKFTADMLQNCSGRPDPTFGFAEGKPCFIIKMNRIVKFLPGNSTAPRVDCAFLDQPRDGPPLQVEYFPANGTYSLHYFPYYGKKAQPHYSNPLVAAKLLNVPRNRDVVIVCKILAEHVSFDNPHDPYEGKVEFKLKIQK

For `[2H]C([2H])([2H])NCc1cn(S(=O)(=O)c2cccnc2)c(-c2c(F)cc(F)cc2F)c1OC` [Example 39, N-((4-methoxy-1-(pyridin-3-ylsulfonyl)-5-(2,4,6-trifluorophenyl)-1H-pyrrol-3-yl)methyl)methan-d3-amine], in experiment [1], the pIC50 was 7.42 and the IC50 is at most 100 nM.
With `[2H]C([2H])([2H])NCc1cc(-c2cccc(F)c2)n(S(=O)(=O)c2ccc(C#N)cc2)c1` [Example 22, 4-((2-(3-fluorophenyl)-4-(((methyl-d3)amino)methyl)-1H-pyrrol-1-yl)sulfonyl)benzonitrile], in experiment [2] (Homo sapiens), the pIC50 is 4.65 and the IC50 is under 50 µM.
Taken in the same sequence, the figures for `[2H]C([2H])([2H])NCc1cc(-c2ccc(F)cc2)n(S(=O)(=O)c2ccc(F)cc2)c1` [Example 24, N-((5-(4-fluorophenyl)-1-((4-fluorophenyl)sulfonyl)-1H-pyrrol-3-yl)methyl)methan-d3-amine] were 4.38 and under 50 µM.
In the case of `[2H]C([2H])([2H])NCc1cn(S(=O)(=O)c2ccc(OC)nc2)c(-c2c(F)cc(F)cc2F)c1OC` [Example 40, N-((4-methoxy-1-((6-methoxypyridin-3-yl)sulfonyl)-5-(2,4,6-trifluorophenyl)-1H-pyrrol-3-yl)methyl)methane-d3-amine], in experiment [1], the pIC50 was 7.19 and the IC50 was at most 100 nM.
In the same order, the values of `[2H]C([2H])([2H])NCc1cc(-c2ccc(F)cc2F)n(S(=O)(=O)c2ccc(OC)cc2)c1` [Example 17, N-((5-(2,4-difluorophenyl)-1-((4-methoxyphenyl)sulfonyl)-1H-pyrrol-3-yl)methyl)methan-d3-amine] are 7.08 and at most 100 nM.
For `[2H]C([2H])([2H])NCc1cc(-c2ccccc2F)n(S(=O)(=O)c2ccc(OC)cc2)c1` [Example 3, N-((5-(2-fluorophenyl)-1-((4-methoxyphenyl)sulfonyl)-1H-pyrrol-3-yl)methyl)methan-d3-amine], in experiment [1], the pIC50 is 7.32 and the IC50 is at most 100 nM. In addition, in experiment [2] (Homo sapiens), the pIC50 is 5.46 and the IC50 was under 50 µM.
Turning to `[2H]C([2H])([2H])NCc1cc(-c2cccc(F)c2)n(S(=O)(=O)c2ccc(Cl)cc2)c1` [Example 10, N-((1-((4-chlorophenyl)sulfonyl)-5-(3-fluorophenyl)-1H-pyrrol-3-yl)methyl)methan-d3-amine], in experiment [1], the pIC50 is 7.22 and the IC50 was at most 100 nM.
In the case of `[2H]C([2H])([2H])NCc1cn(S(=O)(=O)c2ccc(OC)nc2)c(-c2ccc(F)cc2F)c1OC` [Example 37, N-((5-(2,4-difluorophenyl)-4-methoxy-1-((6-methoxypyridin-3-yl)sulfonyl)-1H-pyrrol-3-yl)methyl) methane-d3-amine], in experiment [1], the pIC50 was 7.06 and the IC50 was at most 100 nM.
As for `[2H]C([2H])([2H])NCc1cc(-c2ccccc2F)n(S(=O)(=O)c2ccc(Cl)cc2)c1` [Example 6, N-((1-((4-chlorophenyl)sulfonyl)-5-(2-fluorophenyl)-1H-pyrrol-3-yl)methyl)methan-d3-amine], the results for the pIC50 in experiment [1] and in experiment [2] (Homo sapiens) were 7.59 and 4.66, respectively. Further, the IC50 in experiment [1] is at most 100 nM; in experiment [2] (Homo sapiens), under 50 µM.
Take `[2H]C([2H])([2H])NCc1cc(-c2ccc(F)cc2)n(S(=O)(=O)c2ccc(Cl)cc2)c1` [Example 26, N-((1-((4-chlorophenyl)sulfonyl)-5-(4-fluorophenyl)-1H-pyrrol-3-yl)methyl)methan-d3-amine]: in experiment [2] (Homo sapiens), the pIC50 is 4.88 and the IC50 was under 50 µM.
Consider `[2H]C([2H])([2H])NCc1cc(-c2ccccc2F)n(S(=O)(=O)c2ccc(Br)cc2)c1` [Example 5, N-((1-((4-bromophenyl)sulfonyl)-5-(2-fluorophenyl)-1H-pyrrol-3-yl)methyl)methan-d3-amine], for which, in experiment [1], the pIC50 was 7.44 and the IC50 was at most 100 nM.
In the same order, the values of `[2H]C([2H])([2H])NCc1cc(-c2cccc(F)c2)n(S(=O)(=O)c2ccc(OC)cc2)c1` [Example 11, N-((5-(3-fluorophenyl)-1-((4-methoxyphenyl)sulfonyl)-1H-pyrrol-3-yl)methyl)methan-d3-amine] are 7.12 and at most 100 nM.
On to `[2H]C([2H])([2H])NCc1cc(-c2ccc(F)cc2)n(S(=O)(=O)c2ccc(Br)cc2)c1` [Example 25, N-((1-((4-bromophenyl)sulfonyl)-5-(4-fluorophenyl)-1H-pyrrol-3-yl)methyl)methan-d3-amine], for which, in experiment [2] (Homo sapiens), the pIC50 was 4.61 and the IC50 is under 50 µM.
In the case of `N.N.[Cl][Pt][Cl]` [Control Drug 3 (Cisplatin), diamminedichloridoplatinum(II), reference compound], in experiment [2], the pIC50 is 4.72 and the IC50 was under 50 µM.
As for `[2H]C([2H])([2H])NCc1cc(-c2ccccc2F)n(S(=O)(=O)c2ccc(C)cc2)c1` [Example 2, N-((5-(2-fluorophenyl)-1-tosyl-1H-pyrrol-3-yl)methyl)methan-d3-amine], in experiment [1], the pIC50 is 7.17 and the IC50 is at most 100 nM. Also, in experiment [2] (Homo sapiens), the pIC50 was 4.76 and the IC50 was under 50 µM.
With `[2H]C([2H])([2H])NCc1cc(-c2ccc(F)cc2F)n(S(=O)(=O)c2ccc(C)cc2)c1` [Example 16, N-((5-(2,4-difluorophenyl)-1-tosyl-1H-pyrrol-3-yl)methyl)methane-d3-amine], in experiment [1], the pIC50 was 7.09 and the IC50 was at most 100 nM.
In the case of `[2H]C([2H])([2H])NCc1cc(-c2ccc(F)cc2F)n(S(=O)(=O)c2ccc(Br)cc2)c1` [Example 13, N-((1-((4-bromophenyl)sulfonyl)-5-(2,4-difluorophenyl)-1H-pyrrol-3-yl)methyl)methan-d3-amine], in experiment [2] (Homo sapiens), the pIC50 was 4.85 and the IC50 was under 50 µM.
As for `[2H]C([2H])([2H])NCc1cc(-c2ccccc2F)n(S(=O)(=O)c2ccc(C#N)cc2)c1` [Example 4, 4-((2-(2-fluorophenyl)-4-(((methyl-d3)amino)methyl)-1H-pyrrol-1-yl)sulfonyl)benzonitrile], in experiment [1], the pIC50 is 7.05 and the IC50 is at most 100 nM. In addition, in experiment [2] (Homo sapiens), the pIC50 is 4.49 and the IC50 was under 50 µM.
Take `COc1ccc2nc([S@@+]([O-])Cc3ncc(C)c(OC)c3C)[nH]c2c1` [Control Drug 2 (Esomeprazole), 6-methoxy-2-[(S)-(4-methoxy-3,5-dimethylpyridin-2-yl)methylsulfinyl]-1H-benzimidazole, reference compound]: in experiment [2] (Homo sapiens), the pIC50 is 3.71 and the IC50 was in the range of 101 to 400 µM.
For `[2H]C([2H])([2H])NCc1cc(-c2ccccc2F)n(S(=O)(=O)c2ccc(OC(F)(F)F)cc2)c1` [Example 8, N-((5-(2-fluorophenyl)-1-((4-(trifluoromethoxy)phenyl)sulfonyl)-1H-pyrrol-3-yl)methyl)methan-d3-amine], in experiment [1], the pIC50 is 7.29 and the IC50 was at most 100 nM. In experiment [2] (Homo sapiens), the pIC50 was 4.91 and the IC50 was under 50 µM.
